Several values for one entry are separate records, joined by “and”; a condition that tells them apart may be missing. Equal entries are not always repeated.
Test system: 328373-195-R-J1-PDC complex spheroids, viability % test/control
Assay: Anticancer human tumor 328373-195-R-J1-PDC patient-derived head and neck squamous carcinoma cell line growth inhibition [CLK]
Conditions: for viability, T/C: stronger effect = lower value
Procedure, shortened: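 Patient-derived tumor cells grown as complex spheroids with HUVEC endothelial cells and mesenchymal stem cells, treated with drug combinations. Concentrations descend in half-log steps from near clinical Cmax, or from 10 microM if Cmax unknown.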

[1] = curve of first compound, second compound 0.0316 µM
[2] = curve of first compound, second compound 0.1 µM
[3] = curve of first compound, second compound 0.316 µM
[4] = curve of first compound, second compound 1 µM
[5] = curve of first compound, second compound 3.16 µM
[6] = curve of first compound, second compound 10 µM
[7] = second compound 0.0316 µM, first compound 0.0316 µM
[8] = second compound 0.0316 µM, first compound 0.1 µM
[9] = second compound 0.0316 µM, first compound 0.316 µM
[10] = second compound 0.0316 µM, first compound 1 µM
[11] = second compound 0.0316 µM, first compound 3.16 µM
[12] = second compound 0.0316 µM, first compound 10 µM
[13] = second compound 0.1 µM, first compound 0.0316 µM
[14] = second compound 0.1 µM, first compound 0.1 µM
[15] = second compound 0.1 µM, first compound 0.316 µM
[16] = second compound 0.1 µM, first compound 1 µM
[17] = second compound 0.1 µM, first compound 3.16 µM
[18] = second compound 0.1 µM, first compound 10 µM
[19] = second compound 0.316 µM, first compound 0.0316 µM
[20] = second compound 0.316 µM, first compound 0.1 µM
[21] = second compound 0.316 µM, first compound 0.316 µM
[22] = second compound 0.316 µM, first compound 1 µM
[23] = second compound 0.316 µM, first compound 3.16 µM
[24] = second compound 0.316 µM, first compound 10 µM
[25] = second compound 1 µM, first compound 0.0316 µM
[26] = second compound 1 µM, first compound 0.1 µM
[27] = second compound 1 µM, first compound 0.316 µM
[28] = second compound 1 µM, first compound 1 µM
[29] = second compound 1 µM, first compound 3.16 µM
[30] = second compound 1 µM, first compound 10 µM
[31] = second compound 3.16 µM, first compound 0.0316 µM
[32] = second compound 3.16 µM, first compound 0.1 µM
[33] = second compound 3.16 µM, first compound 0.316 µM
[34] = second compound 3.16 µM, first compound 1 µM
[35] = second compound 3.16 µM, first compound 3.16 µM
[36] = second compound 3.16 µM, first compound 10 µM
[37] = second compound 10 µM, first compound 0.0316 µM
[38] = second compound 10 µM, first compound 0.1 µM
[39] = second compound 10 µM, first compound 0.316 µM
[40] = second compound 10 µM, first compound 1 µM
[41] = second compound 10 µM, first compound 3.16 µM
[42] = second compound 10 µM, first compound 10 µM
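Further: spheroids exposed to the agents for 7 days.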

For `COc1cccc2c1C(=O)c1c(O)c3c(c(O)c1C2=O)CC(O)(C(=O)CO)CC3OC1CC(N)C(O)C(C)O1` (stereo unspecified), the viability, T/C (compound 0.0316 µM) was 14.6% and 11.2%, the viability, T/C (compound 0.1 µM) was 11.1% and 6.08% and the viability, T/C (compound 0.316 µM) was 1.12% and 2.35%. For the same compound, the viability, T/C (compound 1 µM) was 0.18% and 1.14%, the viability, T/C (compound 3.16 µM) was 2.47% and 0.1% and the viability, T/C (compound 10 µM) was 1.82% and 1.43%. The IC50 (curve of compound) was under 31.6 nM.

`C#Cc1c(F)ccc2cc(O)cc(-c3ncc4c(N5CC6CCC(C5)N6)nc(OCC56CCCN5CC(F)C6)nc4c3F)c12` (stereo unspecified) + CNC(=O)c1ccc(Nc2nc(OC3CCCC3)c3c(-c4ccc5nc(C)oc5c4)c[nH]c3n2)c(OC)c1 was tested, and the IC50 [1] was 5140 nM, the IC50 [2] was under 31.6 nM and the IC50 [3] was under 31.6 nM. The IC50 [4] was under 31.6 nM, the IC50 [5] was under 31.6 nM and the IC50 [6] was under 31.6 nM. The viability, T/C [7] was 68.5%, the viability, T/C [8] was 63.2% and the viability, T/C [9] was 60.2%. It also gave a viability, T/C [10] of 65%, a viability, T/C [11] of 62.6% and a viability, T/C [12] of 32.6%. It also gave a viability, T/C [13] of 11.3%, a viability, T/C [14] of 10.5% and a viability, T/C [15] of 7.58%. It also gave a viability, T/C [16] of 11.6%, a viability, T/C [17] of 9.36% and a viability, T/C [18] of 7.63%. For the same compound, the viability, T/C [19] was 8.02%, the viability, T/C [20] was 9.37% and the viability, T/C [21] was 9.67%. For the same compound, the viability, T/C [22] was 8.78%, the viability, T/C [23] was 7.32% and the viability, T/C [24] was 5.64%. It also gave a viability, T/C [25] of 10%, a viability, T/C [26] of 11.6% and a viability, T/C [27] of 8.24%. It also gave a viability, T/C [28] of 9.01%, a viability, T/C [29] of 8.47% and a viability, T/C [30] of 5.54%. For the same compound, the viability, T/C [31] was 9.2%, the viability, T/C [32] was 8.8% and the viability, T/C [33] was 9.68%. It also gave a viability, T/C [34] of 9.11%, a viability, T/C [35] of 9.06% and a viability, T/C [36] of 6.06%. The viability, T/C [37] was 10.7%, the viability, T/C [38] was 11.8% and the viability, T/C [39] was 10.1%. It also gave a viability, T/C [40] of 10.3%, a viability, T/C [41] of 10.5% and a viability, T/C [42] of 4.63%.

Work on `CC1COCCN1c1cc(C2(S(C)(=N)=O)CC2)nc(-c2ccnc3[nH]ccc23)n1` (stereo unspecified) + CN1CCN(c2cc(C(=O)Nc3cc4cc(-c5cnn(C)c5)ccc4cn3)ccn2)CC1 yielded an IC50 [1] of 1660 nM, an IC50 [2] of 1150 nM and an IC50 [3] of under 31.6 nM. It also gave an IC50 [4] of under 31.6 nM, an IC50 [5] of under 31.6 nM and an IC50 [6] of under 31.6 nM. It also gave a viability, T/C [7] of 95.4%, a viability, T/C [8] of 96.6% and a viability, T/C [9] of 88.2%. It also gave a viability, T/C [10] of 69.3%, a viability, T/C [11] of 25.9% and a viability, T/C [12] of 8.66%. It also gave a viability, T/C [13] of 90.9%, a viability, T/C [14] of 86.8% and a viability, T/C [15] of 81.1%. For the same compound, the viability, T/C [16] was 55.2%, the viability, T/C [17] was 18% and the viability, T/C [18] was 9.2%. For the same compound, the viability, T/C [19] was 22.7%, the viability, T/C [20] was 37.2% and the viability, T/C [21] was 28.5%. For the same compound, the viability, T/C [22] was 14.7%, the viability, T/C [23] was 7.56% and the viability, T/C [24] was 7.95%. The viability, T/C [25] was 0.21%, the viability, T/C [26] was 0.24% and the viability, T/C [27] was 0.58%. The viability, T/C [28] was 0.22%, the viability, T/C [29] was 2.35% and the viability, T/C [30] was 2.29%. It also gave a viability, T/C [31] of 2.09%, a viability, T/C [32] of 0.12% and a viability, T/C [33] of 0.16%. The viability, T/C [34] was 0.14%, the viability, T/C [35] was 1.51% and the viability, T/C [36] was 3.51%. It also gave a viability, T/C [37] of 0.14%, a viability, T/C [38] of 1.61% and a viability, T/C [39] of 1.87%. It also gave a viability, T/C [40] of 1.76%, a viability, T/C [41] of 1.92% and a viability, T/C [42] of 2.57%.

Reference: PubChem BioAssay AID2060620 (Molecular Pharmacology Branch, DTP, NCI, 2025)
